Experiments:
[1] = test system: mice; assay: lethal dose in mice; type: in vivo
Protocol: The grayanotoxins have been described in exhaustive terms in literature and the chemical formulae are known. It has become evident that the effects of the substance occur even for low concentrations of the active agent. The lethal dose for grayanotoxin 1 in mice is approx. 5.1 mg per kg live weight and for grayanotoxin 3 approx. 4.9 mg per kg live weight. The substance as an active agent carrier may contain natural and/or synthetic carrier substances or substance mixtures. Natural carrier substances may be preferably selected from the group of natural oils, waxes and honey and their mixtures, emulsions, solutions or dispersions.

[2] = test system: mice; assay: experiments on development of resistance in mice; type: in vivo

Compound	lethal dose [1]	development of resistance [2]
grayanotoxin 3	approx. 4.9 mg per kg live weight	
CC(=O)O[C@@H]1[C@H]2CC[C@H]3[C@@](C)(O)[C@@H]4C[C@H](O)C(C)(C)[C@@]4(O)[C@H](O)C[C@@]13C[C@@]2(C)O [grayanotoxin 1]	approx. 5.1 mg per kg live weight	
grayanotoxin		rare for mice to develop a resistance
